Data on 3 molecules can be found in US8172395B2, “Medical devices having antimicrobial coatings thereon” (priority 2002, dated 2012).

Series [1] deals with P. aeruginosa GSU #3 (corneal isolate). The class given is cell-based, Pseudomnas aeruginosa. The following applies: 37° C., 24 h; tested 1-20 μg/ml. As to the method: (§1) Two (2) peptides, Cecropin P1 and Cecropin A-melittin hybrid, from American Peptides Company, Inc. are tested against strains of Pseudomnas aeruginosa GSU # 3 (corneal isolate) and # 9027 (a Gram negative organism), Staphylococcus aureus #6538, and Staphylococcus epidermidis # 17917. The first two strains are Gram negative organisms. The last two strains are Gram positive organisms. These organisms are chosen because they are the most common etiological agents causing infection in the eye. The peptides are kept at −70° C. until they are ready to be used. The peptide concentrations tested are 20, 16, 8, 4, 2 and 1 μg/ml in Delbeco's Phosphate Buffered Saline (PBS).
(§2) The bacteria are harvested, washed twice and adjusted to an O.D. of 10^8 cells/ml. Cells then are serially diluted and adjusted to about 5×10^5 cfu/ml. The cells are inoculated into microtiter plates containing serially decreasing peptide concentrations. The inoculum for the bacterial strains are suspended in Mueller Hinton broth, and the final volume in each well is 200 μl. The microtiter plates are incubated at 37° C. for 24 h. The growth is checked as optical density spectrophotometrically in a microtiter plate reader. The O.D. is compared to the blank and to the growth well to determine the MIC. […]

For series [2], the system named is L929 mammalian fibroblasts. As to the kind of experiment: Cytotoxicity, USP Elution Test (MEM elution). The note with it: 5, 0.5 and 0.05 μg/ml; 25% test solution in medium; L929 cells examined after 48 hours.
Procedure: Cytotoxicity of Cecropin A melittin hybrid is evaluated according to the USP Elution Test (“Biological Reactivity Tests, In-Vitro: Elution Test”, The United States Pharmacopeial Convention, Inc.). Cell cultures, L929 mammalian fibroblasts (ATCC cell line CCL1, NCTC clone 929), are grown to a near confluent monolayer in 6 well plates (individual wells are 35 mm diameter). […] The serum-supplemented cell culture medium is prepared by mixing 1000 mL Eagle's sterile minimum essential medium (MEM), 100 mL serum, 10 ml L-glutamine solution and antibiotic-antimycotic solution.
Series [3] concerns P. aeruginosa (PA) (ATCC# 19660). As to the kind of experiment: Mouse organ culture model: adherence of P. aeruginosa to scarified mouse cornea. The note with it: PA pre-incubated 1 h, PBS control 42.4. As to the method: Using the mouse organ culture model, this assay assesses the ability of a compound to inhibit the binding of P. aeruginosa to scarified eyes. Cecropin A melittin hybrid has been tested at three concentrations: 10, 2, and 0.5 μg/ml.
The solutions are tested for their ability to prevent adherence of P. aeruginosa (PA) (ATCC# 19660) to scarified mouse cornea. For these studies 1×10^7 cfu of PA is combined with each of the solutions at each concentration and incubated for 1 h at room temperature. In addition, 1×10^7 cfu of PA are incubated in PBS for 1 h at room temperature as a control. Following this incubation period, the PA are washed twice to remove the peptide solutions. For each washing step, the cultures are centrifuged at 6,000 rpm for 10 min and pellets are resuspended in 1.0 ml of PBS.
Mouse corneas are scarified under a stereoscopic microscope at 40× magnification. The corneal surface of the eyes is incised with three parallel one-mm wounds. The eyes are then enucleated and placed into sterile culture wells containing 2 ml of MEM.
A 5.0 μl aliquot of each bacterial suspension is delivered onto the surface of the cornea. Eyes are routinely incubated in vitro for 1 h at 37° C. at 95% O2 (5% CO2) after bacterial application. Scanning electron microscopy (SEM) is used to quantitate adherent bacteria.
To determine the efficacy of the peptide, the numbers of bacteria at each concentration is compared from 2 separate identical experiments to the PBS control, p≦0.05 is considered significant. There is a slight reduction at 0.5 μg, but significant difference in adherence at 2 and 10 μg from the control. The values for the bacteria adhered at 0.5 μg is 42.4 and 32.6 for the PBS control and the peptide solution respectively. At 2 μg, it is 42.4 and 15.8 for the PBS control and the peptide solution respectively. At 10 μg, it is 42.4 and 5.8 for the PBS control and the peptide solution respectively.

For the next series, the system named is S. epidermidis #17917. In words: MIC of peptides in Mueller Hinton broth, microtiter plates. The class given is cell-based, Staphylococcus epidermidis. The note with it: 37° C., 24 h; tested 1-20 μg/ml. The procedure: as §1, §2
The subject of another series is S. aureus #6538. The series is described as above. It counts as cell-based, Staphylococcus aureus. The note with it: 37° C., 24 h; tested 1-20 μg/ml. As to the method: as §1, §2

Where no end group is shown, it is not given here.

Turning to “KWKLFKKIGAVLKVL-NH2 (C-terminus assumed) [Cecropin A Melittin Hybrid]”, the “Minimal inhibition concentration, P. aeruginosa GSU #3” value in series [1] is recorded as greater than 20 μg/ml^1 μg/mL. The “Cytotoxicity (MEM elution test)” value in series [2] was “non-cytotoxic”. The “bacteria adhered (SEM count)” value came to 32.6 in series [3] (0.5 μg/ml peptide), 15.8 in series [3] (2 μg/ml peptide) and 5.8 in series [3] (10 μg/ml peptide).
As to `CC[C@H](C)[C@H](N)C(=O)N[C@@H](CC(C)C)C(=O)N1CCC[C@H]1C(=O)N[C@@H](Cc1c[nH]c2ccccc12)C(=O)N[C@@H](CCCCN)C(=O)N[C@@H](Cc1c[nH]c2ccccc12)C(=O)N1CCC[C@H]1C(=O)N[C@@H](Cc1c[nH]c2ccccc12)C(=O)N[C@@H](Cc1c[nH]c2ccccc12)C(=O)N1CCC[C@H]1C(=O)N[C@@H](Cc1c[nH]c2ccccc12)C(=O)N[C@@H](CCCN=C(N)N)C(=O)N[C@@H](CCCN=C(N)N)C(N)=O` [Indolicidin], the “Cytotoxicity (MEM elution test)” value in series [2] is recorded as “non-cytotoxic”.
Regarding “SWLSKTAKKLENSAKKRISEGIAIAIQGGPR [Cecropin P1]”, the “Minimal inhibition concentration, S. epidermidis #17917” value with S. epidermidis #17917 is greater than 20 μg/ml^1 μg/mL. Further, the “Minimal inhibition concentration, S. aureus #6538” value in the series on S. aureus #6538 is listed as greater than 20 μg/ml^1 μg/mL.
